Results on eight compounds are retold here after PubChem BioAssay (NCI).

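Method: 48-hour compound exposure of cells in 96-well plates, five concentrations, linear interpolation of endpoints. Abbreviation: GI50, concentration required for 50% inhibition of growth. At the TGI there is no net growth.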

Test systems include HCC-2998 colon; K-562 leukemia; KM12 colon; LOX IMVI melanoma; MALME-3M melanoma; MDA-MB-435; NCI-H226 lung; NCI-H522 lung; NCI/ADR-RES ovarian; OVCAR-5 ovarian; RPMI-8226 leukemia; SF-268 CNS; SR leukemia.
What all share (assay): NCI anticancer screen, dose series, 48 h

On to `COc1cc(C2c3cc4c(cc3OC(N3CCCCC3)C2C)OCO4)cc(OC)c1O` (stereo not given), for which the TGI with HCC-2998 colon was 32.7 µM; with K-562 leukemia, above 100 µM; in the assay with KM12 colon it was 50.6 µM; in the assay on LOX IMVI melanoma, above 59.8 µM; with MALME-3M melanoma, 16.8 µM; in the assay with MDA-MB-435 it was 5.92 µM. The TGI with NCI-H226 lung was above 64.2 µM; in the assay on NCI-H522 lung it was 22.2 µM; in the assay with NCI/ADR-RES ovarian, 18.5 µM; with OVCAR-5 ovarian it was 41.3 µM; in the assay on RPMI-8226 leukemia it was above 76.3 µM; in the assay with SF-268 CNS it was above 53.8 µM. In addition, the TGI with SR leukemia is above 44.5 µM.
For `Cc1ccnc2[nH]c(-c3ccc4ccccc4c3)cc(=O)c12`, the TGI in the assay with HCC-2998 colon is 19.4 µM; in the assay with K-562 leukemia, 6.52 µM; in the assay on KM12 colon it was 20.6 µM; in the assay on LOX IMVI melanoma, 12.2 µM; in the assay with MALME-3M melanoma it was 18.6 µM; in the assay with MDA-MB-435, 0.453 µM. Also, the TGI with NCI-H226 lung turned out to be 11.4 µM; with NCI-H522 lung it was 3.42 µM; in the assay on NCI/ADR-RES ovarian, 7.14 µM; in the assay on OVCAR-5 ovarian, 23.5 µM; with RPMI-8226 leukemia, 8.05 µM; in the assay with SF-268 CNS, 39.4 µM. Besides, the TGI in the assay with SR leukemia was 0.919 µM. For the same compound, the GI50 in the assay on MDA-MB-435 is 0.204 µM.
On to `Cc1ccc(-n2cnc(C(=N)C#N)c2N)cc1`, for which the TGI with HCC-2998 colon, in the assay with K-562 leukemia, with KM12 colon, in the assay with LOX IMVI melanoma, with MALME-3M melanoma and in the assay with MDA-MB-435 was above 100 µM each time. Besides, the TGI in the assay on NCI-H226 lung, in the assay with NCI-H522 lung, with NCI/ADR-RES ovarian, with OVCAR-5 ovarian, in the assay with RPMI-8226 leukemia and in the assay on SF-268 CNS was above 100 µM throughout. The TGI with SR leukemia is above 100 µM.
As to `O=C1Sc2cc3ccccc3cc2C(=O)Sc2ccc(Br)cc21`, the TGI came to 19.3 µM in the assay on HCC-2998 colon; 19.2 µM in the assay with K-562 leukemia; 21.2 µM in the assay with KM12 colon; 3.97 µM in the assay on LOX IMVI melanoma; 26.5 µM in the assay on MALME-3M melanoma; 13.4 µM with MDA-MB-435. Also, the TGI is 42.6 µM in the assay with NCI-H226 lung; 4.52 µM in the assay with NCI-H522 lung; 15.6 µM with NCI/ADR-RES ovarian; 25.5 µM with OVCAR-5 ovarian; above 100 µM in the assay with RPMI-8226 leukemia; 23.2 µM with SF-268 CNS. The same compound yielded a TGI in the assay on SR leukemia of 9.14 µM.
`Cc1[nH]c(=O)nc2nc3ccc(Cl)cc3c(NCCNCCO)c12`: the TGI in the assay with HCC-2998 colon is 26.5 µM; with K-562 leukemia, above 100 µM; with KM12 colon, 23 µM; with LOX IMVI melanoma it was 21 µM; in the assay with MALME-3M melanoma, 28.5 µM; with MDA-MB-435, 25.7 µM. Also, the TGI with NCI-H226 lung was 29.8 µM; in the assay with NCI-H522 lung, 12.9 µM; in the assay on NCI/ADR-RES ovarian, 42.3 µM; in the assay on OVCAR-5 ovarian it was 26.1 µM; with RPMI-8226 leukemia, above 100 µM; with SF-268 CNS, 27.9 µM. Further, the TGI in the assay with SR leukemia was above 100 µM.
For `O=[N+]([O-])c1ccc(CN(CCCl)OCCCl)cc1`, the TGI in the assay on HCC-2998 colon, in the assay on K-562 leukemia, in the assay on KM12 colon, in the assay on LOX IMVI melanoma, with MALME-3M melanoma and in the assay with MDA-MB-435 was above 100 µM each time. Besides, the TGI in the assay with NCI-H226 lung, in the assay on NCI-H522 lung, in the assay with NCI/ADR-RES ovarian, in the assay with OVCAR-5 ovarian, in the assay on RPMI-8226 leukemia and in the assay with SF-268 CNS was above 100 µM each time. In the assay on SR leukemia, this compound gave a TGI above 100 µM.
On to `O=C(Nc1ccccc1)c1cc(S(=O)(=O)NC2=NC(c3ccccc3)c3cc(Cl)ccc3N2)c(SSc2cc(Cl)c(C(=O)Nc3ccccc3)cc2S(=O)(=O)NC2=NC(c3ccccc3)c3cc(Cl)ccc3N2)cc1Cl` (stereo not given), for which the TGI in the assay with HCC-2998 colon, in the assay on K-562 leukemia, in the assay with KM12 colon, with LOX IMVI melanoma, with MALME-3M melanoma and in the assay on MDA-MB-435 was above 100 µM throughout. Moreover, the TGI in the assay on NCI-H226 lung, in the assay with NCI-H522 lung, in the assay with NCI/ADR-RES ovarian, in the assay on OVCAR-5 ovarian, in the assay with RPMI-8226 leukemia and in the assay on SF-268 CNS was above 100 µM throughout. Besides, in the assay with SR leukemia, the TGI is above 26.7 µM.
Regarding `COc1ccc(C2SC(N)=Nc3c2c(C)nn3C(=O)c2ccncc2)cc1OC` (stereo not given), the TGI in the assay on HCC-2998 colon, in the assay on K-562 leukemia, in the assay on KM12 colon, with LOX IMVI melanoma, in the assay with MALME-3M melanoma and with MDA-MB-435 was above 10 µM in each case. The TGI in the assay on NCI-H226 lung, in the assay on NCI-H522 lung, with NCI/ADR-RES ovarian, in the assay with OVCAR-5 ovarian, in the assay on RPMI-8226 leukemia and in the assay with SF-268 CNS was above 10 µM each time. Besides, the TGI with SR leukemia is above 10 µM.
